Entries after “also recorded” stand apart in the source; their conditions may differ.
How the values were obtained:
biofilm of A. naeslundi = test: Light-triggered reduction of bacterial biofilm (24 h old); assay type: cell-based; conditions: for biofilm reduction compared to light alone: 0.1% concentration, in the presence of light; for Percentage Reduction in Biofilm, Light plus photosensitizer: 0.1% dye incubated 2 min prior to irradiation, wavelength given with each dye, 24 J/cm^2 (200 mW/cm^2 @ 2 min)
Protocol: Bacterial biofilms (24 h old) were treated with the photosensitizers or photo-triggered actives described in the tables below at a concentration less than their minimum inhibitory concentration (MIC). The actives were either pre-incubated before light exposure for 2 s to 15 min, typically less than 2 min, or administered at the same time the biofilm was exposed to the light. The bacteria were irradiated at a set wavelength for 2 s to 15 min (typically less than 2 min) at an energy dose between 1-450 J/cm^2. Optical power densities typically ranged from 1-500 mW/cm^2. Light was either pulsed or provided in one continuous light exposure. Pulsed light treatments were preferred for high optical energy treatments.
On a biofilm of A. naeslundi, the impact of four “photosensitizers” (0.1% concentration) in the presence of light was evaluated. MIC typically ranged from 0.0001% (w/v) to 1% (w/v). The percent biofilm reduction is tabulated below.

[1] = system: TNFα of HEPM cells stimulated by IL-1β; test: Cytokine concentration in IL-1β stimulated cell culture after light irradiation with dye; assay type: cell-based, human; conditions: 9 mW/cm^2, 1.1 J/cm^2
Protocol: Cells used in this example include human embryonic palatal mesenchymal (HEPM) cells and oral keratinocytes OBA9 cells. The embodiments also can be used with other cells such as human gingival fibroblasts (HGF). Cells were seeded in 24-well plates and cultured until reaching a confluence above 80%. The confluent-stage cells were treated with stimulants such as IL-1β followed by light irradiation alone, or light irradiation combined with GRAS photosensitizing dye. The cells were either pre-incubated in photosensitizing dye before light exposure, or administered at the same time of light exposure. The cells were incubated in photosensitizing dyes for varied amounts of time, the concentration of photosensitizing dyes were varied, and the cell were irradiated with light for varied amounts of time per exposure, as well as irradiation either one time or multiple times, as described below. After irradiation, the cells were incubated at 37° C. The cell culture media was collected after a certain amount of time for cytokine analysis.
The results tabulated below reveal that visible light (various wavelength, 380-700 nm) alone and photosensitizing dye irradiated with visible light (various wavelength, 380-700 nm) have anti-inflammation effect. […]

Molecule | biofilm reduction compared to light alone (biofilm of A. naeslundi) | Percentage Reduction in Biofilm, Light plus photosensitizer (biofilm of A. naeslundi) | effect on TNFα concentration ([1]; Fast Green 1000 ppm combined with light at 625 nm for 2 minutes) | Cytokine Conc. TNF-α, Il-1β + light + Dye ([1]; HEPM cells, IL-1β stimulated, Fast Green 1000 ppm, 625 nm, 2 minutes, Il-1β alone 9, Il-1β + light 5.8)
COc1cc(S(=O)(=O)[O-])c(C)cc1N=Nc1c(O)ccc2cc(S(=O)(=O)[O-])ccc12.[Na+].[Na+] [Allura Red, Allura Red AC] | increased biofilm reduction compared to light alone | 55% |  | 
O=S(=O)([O-])c1ccc(/N=N/c2cc(S(=O)(=O)[O-])c3ccccc3c2O)c2ccccc12.[Na+].[Na+] [Chromotrope, Chromotrope FB] |  | 18% |  | 
CCN(Cc1cccc(S(=O)(=O)[O-])c1)c1ccc(C(=C2C=CC(=[N+](CC)Cc3cccc(S(=O)(=O)[O-])c3)C=C2)c2ccccc2S(=O)(=O)[O-])cc1.[Na+].[Na+] [Erioglaucine, Erioglaucine disodium salt] |  | 41% |  | 
CCN(Cc1cccc(S(=O)(=O)[O-])c1)c1ccc(C(=C2C=CC(=[N+](CC)Cc3cccc(S(=O)(=O)[O-])c3)C=C2)c2ccc(O)cc2S(=O)(=O)[O-])cc1.[Na+].[Na+] [Fast Green, Fast Green FCF] | increased biofilm reduction compared to light alone | 43% | can decrease pro-inflammation cytokine TNFα concentration; also recorded: can reduce concentration of TNFα | 3.4 pg/mL
O=C1/C(=C2\Nc3ccc(S(=O)(=O)[O-])cc3C2=O)Nc2ccc(S(=O)(=O)[O-])cc21.[Na+].[Na+] [Indigo Carmine] |  | 30% |  | 
CN(C)c1ccc(C(=C2C=CC(=[N+](C)C)C=C2)c2c(O)c(S(=O)(=O)[O-])cc3cc(S(=O)(=O)[O-])ccc23)cc1.[Na+] [Lissamine Green B] | increased biofilm reduction compared to light alone | 43% |  | 
Cc1cc2nc3c(=O)[nH]c(=O)nc-3n(C[C@H](O)[C@H](O)[C@H](O)CO)c2cc1C [Riboflavin] | increased biofilm reduction compared to light alone | 56% |  | 
O=C([O-])C1=NN(c2ccc(S(=O)(=O)[O-])cc2)C(=O)C1N=Nc1ccc(S(=O)(=O)[O-])cc1.[Na+].[Na+].[Na+] (stereo not shown) [Tartrazine] | increased biofilm reduction compared to light alone | 72% |  | 
Chlorophyllin sodium copper salt |  | 21% |  | 

— patent US20120258053A1, “ORAL CARE COMPOSITIONS FOR USE WITH AN ORAL LIGHT DEVICE” (COLGATE-PALMOLIVE COMPANY, priority 2009, published 2012)
